We go through 5 molecules from ChEMBL document CHEMBL1150735, “Phytochemical and pharmacological investigation of the cardioactive constituents of the leaf of Dysoxylum lenticellare” (J Nat Prod, 1987).

Molecules are shown by their SMILES.

The nature of data set [1]: Cardiovascular activity in spontaneously beating rat right atria assessed as change in rate of contraction at 80 uM by microdynameter relative to control. It is filed as functional. The conditions noted are these: Right cardiac atrium.
Data set [2] is described as follows: Cardiovascular activity in spontaneously beating rat right atria assessed as change in amplitude of contraction at 80 uM by microdynameter relative to control. It is filed as functional. As to conditions: Right cardiac atrium.
A short description of data set [3]: Solubility in water. It is filed as physicochemical. The conditions noted are these: buffer.

`COc1ccc(CC[C@@H]2c3cc(OC)c(OC)cc3CCN2C)cc1OC`: the Activity is -6.7% in data set [1] and 16.3% in data set [2].
With `COc1cc2c(cc1OC)-c1cc3c(cc1CCCN(C)CC2)OCO3` [DYSAZECINE], in data set [3], the solubility entry is “Insoluble”.
In the case of `CO[C@H]1CC=C2CCN3CCC(O)c4cc5c(cc4[C@]23C1)OCO5` (stereo partly drawn), the Activity was -6% in data set [1] and 11.5% in data set [2].
Taken in the same sequence, the figures for `COc1cc2c(cc1OC)[C@@H](CCc1ccc3c(c1)OCO3)N(C)CC2` were -6.4% and 11.8%.
As for `C=C1C[C@]23CC[C@@H]4C(C)(C)CCC[C@@]4(C)[C@@H]2CC[C@H]1C3` [PHYLLOCLADENE], the solubility entry in data set [3] is on record as “Insoluble”.
